Data published in patent US10851082B2, “Substituted aromatic n-heterocyclic compounds as inhibitors of mitogen-activated protein kinase interacting kinase 1 (MNK1) and 2 (MNK2)” (Northwestern University, priority 2015, dated 2020).
Read-outs that look alike come from different tables or passages of the source.

Columns and labels:
Mnk2 = Mnk2 (Homo sapiens (Human), UniProt Q9HBH9); assay: Mnk2 kinase inhibition, ADP-Glo ADP monitoring assay; format: biochemical
Experimental: (§1) The synthesized compounds then were tested for inhibition of the kinase activity (IC50) of Mnk1 and/or Mnk2 using the ADP monitoring assay for kinases described in Zegzouti, H.; Zdanovskaia, M.; Hsiao, K.; Goueli, S. A., ADP-Glo: A Bioluminescent and homogeneous ADP monitoring assay for kinases.

Mnk1 = Mnk1 (Homo sapiens (Human), UniProt Q9BUB5); assay: Mnk1 kinase inhibition, ADP-Glo ADP monitoring assay; format: biochemical; settings: read-out: Mnk1 inhibition IC50 (+,++,+++)
Experimental: as §1

[1] = ADP-Glo kinase assay, read-out: Mnk2 inhibition IC50 (+,++,+++)

Sequence of Mnk2 (Q9HBH9 whole entry): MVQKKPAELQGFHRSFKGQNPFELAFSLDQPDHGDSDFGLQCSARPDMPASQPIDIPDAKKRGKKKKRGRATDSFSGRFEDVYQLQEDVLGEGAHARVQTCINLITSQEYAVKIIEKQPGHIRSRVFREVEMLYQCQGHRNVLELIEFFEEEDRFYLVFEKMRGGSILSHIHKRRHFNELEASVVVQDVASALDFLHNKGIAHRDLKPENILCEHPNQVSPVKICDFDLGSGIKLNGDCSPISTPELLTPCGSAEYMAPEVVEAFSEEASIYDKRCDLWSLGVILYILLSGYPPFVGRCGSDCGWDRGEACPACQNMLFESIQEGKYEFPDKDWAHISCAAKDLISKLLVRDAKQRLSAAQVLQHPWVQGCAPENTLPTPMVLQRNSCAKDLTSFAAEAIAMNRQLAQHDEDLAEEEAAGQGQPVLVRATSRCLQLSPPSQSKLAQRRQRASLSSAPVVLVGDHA
Sequence of Mnk1 (Q9BUB5 whole entry): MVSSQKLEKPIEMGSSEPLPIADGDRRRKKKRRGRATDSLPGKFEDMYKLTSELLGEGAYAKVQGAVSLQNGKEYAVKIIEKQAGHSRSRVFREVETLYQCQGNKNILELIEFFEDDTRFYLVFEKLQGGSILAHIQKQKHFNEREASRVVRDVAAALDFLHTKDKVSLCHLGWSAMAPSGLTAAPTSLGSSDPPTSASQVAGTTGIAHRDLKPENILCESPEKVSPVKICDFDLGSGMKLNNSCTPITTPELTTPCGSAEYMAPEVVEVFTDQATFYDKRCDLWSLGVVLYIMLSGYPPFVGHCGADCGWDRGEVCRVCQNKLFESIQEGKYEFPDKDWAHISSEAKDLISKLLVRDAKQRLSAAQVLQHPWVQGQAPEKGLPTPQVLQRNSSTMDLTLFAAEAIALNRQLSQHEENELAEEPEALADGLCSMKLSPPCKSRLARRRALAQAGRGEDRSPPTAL

| Structure (SMILES) | IC50 (Mnk2) | IC50 (Mnk1) | IC50 (Mnk2; [1]) |
| --- | --- | --- | --- |
| Clc1cnc(NC2CCC2)nc1-n1cnc2ccccc21 [NUCC-0201050] | 1000 to 10000 nM | 1000 to 10000 nM |  |
| O=C1CCN(c2ncc(Cl)c(-n3cnc4ccccc43)n2)C1 [NUCC-0201051] | 1000 to 10000 nM | 1000 to 10000 nM |  |
| N[C@H]1C[C@H](Oc2ncc(Cl)c(-n3cnc4ccccc43)n2)C1 [NUCC-0201052] |  | < 1000 nM | < 1000 nM |
| Clc1cnc(NC2C3CC2C3)nc1-n1cnc2ccccc21 (centres unmarked) [NUCC-0201136] | 1000 to 10000 nM | 1000 to 10000 nM |  |
| N#Cc1cnc(NC2C3CC2C3)nc1-n1cnc2ccccc21 (centres unmarked) [NUCC-0201137, 4-(1H-benzo[d]imidazol-1-yl)-2-(bicyclo[1.1.1]pentan-2-ylamino)pyrimidine-5-carbonitrile] |  | < 1000 nM | < 1000 nM |
| N#Cc1cn(-c2nc(OC3CC(N)C3)ncc2Cl)cn1 (centres unmarked) [NUCC-0201246] | 1000 to 10000 nM | 1000 to 10000 nM |  |
| NC1CC(Oc2ncc(Cl)c(-n3cnc(-c4ccc(Cl)c(C(F)(F)F)c4)c3)n2)C1 (centres unmarked) [NUCC-0201247, 3-((5-chloro-4-(4-(4-chloro-3-(trifluoromethyl)phenyl)-1H-imidazol-1-yl)pyrimidin-2-yl)oxy)cyclobutanamine] | 1000 to 10000 nM | 1000 to 10000 nM |  |
| N#Cc1cnc(OC2CC(N)C2)nc1-n1cnc(-c2ccc(Cl)c(Cl)c2)c1 (centres unmarked) [NUCC-0201248] |  | 1000 to 10000 nM | < 1000 nM |
| CC(C)(COc1ncc(Cl)c(-n2cnc3ccccc32)n1)c1ccncc1 [NUCC-0201593, 1-(5-chloro-2-(2-methyl-2-(pyridin-4-yl)propoxy)pyrimidin-4-yl)-1H-benzo[d]imidazole] |  | 1000 to 10000 nM | < 1000 nM |
| Fc1ccc2c(ncn2-c2nc(OCCc3ccccn3)ncc2Cl)c1F [NUCC-0201662] |  | < 1000 nM | < 1000 nM |
| NC1CC(Oc2ncc(C(F)(F)F)c(-n3cnc4ccccc43)n2)C1 (centres unmarked) [NUCC-0201663] | 1000 to 10000 nM | < 1000 nM |  |
| NC1CC(Oc2ncc(Cl)c(-n3cnc(C(F)(F)F)c3)n2)C1 (centres unmarked) [NUCC-0201664] | 1000 to 10000 nM | < 1000 nM |  |
| Clc1cnc(CCc2ccccn2)nc1-n1cnc2ccccc21 [NUCC-0201706, 1-(5-chloro-2-(2-(pyridin-2-yl)ethyl)pyrimidin-4-yl)-1H-benzo[d]imidazole] | 1000 to 10000 nM | 1000 to 10000 nM |  |
| Fc1cnc(NC23CC(C2)C3)nc1-n1cnc2ccccc21 [NUCC-0201887] |  | < 1000 nM | < 1000 nM |
| FC(F)(F)c1cnc(NC23CC(C2)C3)nc1-n1cnc2ccccc21 [NUCC-0201888] |  | < 1000 nM | < 1000 nM |
| CCOC(=O)c1cnc(NC2CNC(=O)C2)nc1-n1cnc2ccccc21 (centres unmarked) [NUCC-0201889] | 1000 to 10000 nM | 1000 to 10000 nM |  |
| O=C1CC(Nc2ncc(C(F)(F)F)c(-n3cnc4ccccc43)n2)CN1 (centres unmarked) [NUCC-0201890] |  | < 1000 nM | < 1000 nM |

| Structure (SMILES) | IC50 (Mnk2) | IC50 (Mnk1) | IC50 (Mnk2; [1]) |
| --- | --- | --- | --- |
| O=C(O)C1CC(Oc2ncc(Cl)c(-n3cnc4ccccc43)n2)C1 (centres unmarked) [NUCC-0201891] |  | 1000 to 10000 nM | < 1000 nM |
| Nc1ccc(CCOc2ncc(Cl)c(-n3cnc4ccccc43)n2)cc1 [NUCC-0201892] |  | < 1000 nM | < 1000 nM |
| NC1CC(Oc2ncc(Br)c(-n3cnc4ccccc43)n2)C1 (centres unmarked) [NUCC-0201893] |  | < 1000 nM | < 1000 nM |
| NC1CC(Oc2nc(-n3cnc4ccccc43)c3ccccc3n2)C1 (centres unmarked) [NUCC-0201894] |  | < 1000 nM | < 1000 nM |
| Brc1cnc(OC2CCNC2)nc1-n1cnc2ccccc21 (centres unmarked) [NUCC-0201895] |  | < 1000 nM | < 1000 nM |
| c1ccc2c(c1)ncn2-c1ccnc(OC2CCNC2)n1 (centres unmarked) [NUCC-0201896] |  | < 1000 nM | < 1000 nM |
| FC(F)(F)c1cnc(OC2CCNC2)nc1-n1cnc2ccccc21 (centres unmarked) [NUCC-0201897] |  | < 1000 nM | < 1000 nM |
| NC(=O)c1cccc(-c2cnc(OC3CC(N)C3)nc2-n2cnc3ccccc32)c1 (centres unmarked) [NUCC-0201899] |  | 1000 to 10000 nM | < 1000 nM |
| NC1CC(Oc2ncc(C3CC3)c(-n3cnc4ccccc43)n2)C1 (centres unmarked) [NUCC-0201900] |  | < 1000 nM | < 1000 nM |
| NC(=O)c1cccc(-c2cnc(OC3CCNC3)nc2-n2cnc3ccccc32)c1 (centres unmarked) [NUCC-0201901] |  | 1000 to 10000 nM | < 1000 nM |
| c1ccc2c(c1)ncn2-c1nc(OC2CCNC2)ncc1-c1ccsc1 (centres unmarked) [NUCC-0201902] |  | < 1000 nM | < 1000 nM |
| NC(=O)c1ccc(-c2cnc(OC3CCNC3)nc2-n2cnc3ccccc32)cc1 (centres unmarked) [NUCC-0201903] |  | < 1000 nM | < 1000 nM |
| N#Cc1cnc(NC2CNC(=O)C2)nc1-n1cnc2ccccc21 (centres unmarked) [NUCC-0201905] |  | < 1000 nM | < 1000 nM |
| Fc1cccc(CCOc2ncc(Cl)c(-n3cnc4ccccc43)n2)c1 [NUCC-0201906] |  | < 1000 nM | < 1000 nM |
| N#Cc1cnc(-n2cnc3ccccc32)nc1OCCc1ccnc(F)c1 [NUCC-0201907] |  | < 1000 nM | < 1000 nM |
| CC(C)(COc1nc(-n2cnc3ccccc32)ncc1C#N)c1ccnc(F)c1 [NUCC-0201908] | 1000 to 10000 nM | 1000 to 10000 nM |  |
| CC(C)(COc1ncc(Cl)c(-n2cnc3ccccc32)n1)c1ccnc(F)c1 [NUCC-0201914] |  | < 1000 nM | < 1000 nM |
